According to patent US6326492A, “Heterocyclic protease inhibitors” (3-Dimensional Pharmaceuticals, Inc., priority 2000, dated 2001):
Counter-ions that a name gives are not always drawn.

Target: T1, Human α-thrombin (Homo sapiens, UniProt P00734)
T1 construct: Human α-thrombin, was obtained from Enzyme Research Laboratories; purchased Enzyme Research Laboratories (South Bend, Ind.)
Assay: In vitro inhibition of purified thrombin (Ki determination, p-nitroanilide substrate hydrolysis)
Assay type: biochemical
Details: purified human α-thrombin 0.5 nM, substrate N-succinyl-Ala-Ala-Pro-Arg-p-nitroanilide, 50 mM HEPES, 200 mM NaCl, pH 7.5, 37° C.; read-out: thrombin inhibitory activity
Description: Reagents: All buffer salts were obtained from Sigma Chemical Company (St. Louis, Mo.), and were of the highest purity available. The enzyme substrates, N-benzoyl-Phe-Val-Arg-p-nitroanilide (Sigma B7632), N-benzoyl-Ile-Glu-Gly-Arg-p-nitroanilide hydrochloride (Sigma B2291), N-p-Tosyl-Gly-Pro-Lys-p-nitroanilide (Sigma T6140), N-succinyl-Ala-Ala-Pro-Phe-p-nitroanilide (Sigma S7388) and N-CBZ-Val-Gly-Arg-p-nitroanilide (Sigma C7271) were obtained from Sigma. N-succinyl-Ala-Ala-Pro-Arg-p-nitroanilide (BACHEM L-1720) and N-succinyl-Ala-Ala-Pro-Val-p-nitroanilide (BACHEM L-1770) were obtained from BACHEM (King of Prussia, Pa.). […]
Ki Determinations: All assays are based on the ability of the test compound to inhibit the enzyme catalyzed hydrolysis of a peptide p-nitroanilide substrate. […] In general, substrate concentrations are lower than the experimentally determined value for Km. […]
In a typical Ki determination, into each well of a 96 well plate is pipetted […] of substrate solution, […] of test compound solution, and the plate allowed to thermally equilibrate at 37° C. in a Molecular Devices plate reader for>15 minutes. Reactions were initiated by the addition of a […] aliquot of enzyme and the absorbance increase at 405 nm is recorded for 15 minutes. […] The data are fit to a linear regression, and the value of the slope of the line calculated. […]

Ki	Compound
0.38 nM	Cc1cccc(S(=O)(=O)Nc2ccc(C)n(CC(=O)NC3CCN(C(=N)N)OC3)c2=O)c1 (centres unmarked) [Example 2, 5-[2-(6-Methyl-3-{[(3-methylphenyl)sulfonyl]amino}-2-oxohydropyridyl)acetylamino]-1,2-oxazaperhydroine-2-carboxamidine trifluoroacetate]
26 nM	Cc1cccc(S(=O)(=O)Nc2ccc(C)n(CC(=O)NCC3CNC(=N)NO3)c2=O)c1 (centres unmarked) [Example 1, N-[(3-Imino(1,2,4-oxadiazaperhydroin-6-yl))methyl]-2-(6methyl-3-{[(3methylphenyl)sulfonyl]amino}-2-oxohydropyridyl)acetamide trifluoroacetate]
